Source: patent US11033598B2, “Pharmaceutical composition for preventing or treating hearing loss comprising oat extract as an active ingredient” (priority 2016, dated 2021)

What was measured:
HEI-OC1 cell line = assay: DCF-DA assay of ROS generation in gentamicin hearing loss model cells; conditions: for ROS generation rate (DCF-DA): Table 2; for increase rate of the DCF fluorescence intensity: 24 hrs; for increase rate of the DCF fluorescence intensity / protection of hearing loss (DCF-DA test) as compared to gentamicin only: HEI-OC1; for protection of hearing loss (DCF-DA test) as compared to gentamicin only: 0.1 μg/ml to 2 μg/ml, 24 hours before gentamicin 4 μM
[1] = tested on: hearing loss mouse model (noise-induced hearing loss); assay: Hearing threshold by auditory brainstem response (ABR) after exposure to noise; format: in vivo; conditions: mice; for effect of preserving the hearing threshold (ABR, tone burst): 4 kHz, 8 kHz, 16 kHz TB
Protocol: In order to verify a hearing preservation effect of avenanthramide before exposure to noise, an experiment for measuring a hearing threshold was performed using an auditory brainstem response. A method of measuring the auditory brainstem response (ABR) is a method of evaluating a response to a sound by measuring electric energy when a sound stimulus is transmitted as an electrical signal in the auditory nerve. When the sound reaches the auditory nerve through the outer ear, the middle ear, and the cochlea, the response reflects all states of the outer ear, the middle ear, and the cochlea and reflects the actual sound energy to which the sound energy reaches the brain. The hearing threshold refers to a minimum sensory point of sound that is barely audible, and in a normal mouse, the response is observed even on the small sound having the average of 20 to 30 dB.
Mice to which avenanthramide was administered and untreated control mice were divided into four groups of eight mice, respectively, and evaluated. The noise was exposed with a pure tone of 90 dB of 8 KHz for 6 hours and 10 μg/kg of avenanthramide was intraperitoneally administered to mice before 6 hours and 24 hours of exposure to noise. During the auditory brainstem response test, the stimulus sound was evaluated by lowering the sound gradually from 90 dB by 5 dB with a click sound of a broadband stimulus sound, and the smallest sound of the response was set as the threshold. In addition, the hearing threshold was measured with a stimulus sound of 4 kHz, 8 kHz, 16 kHz, 24 kHz, and 32 kHz tone burst (TB), and in order to verify a hearing preservation effect of avenanthramide, the experiment for measuring the hearing threshold was performed in the same manner as above. The result was illustrated in FIG. 7.
(§1) The noise was exposed with a pure tone of 90 dB 8 KHz for 6 hours and 10 μg/kg of avenanthramide was intraperitoneally administered to mice before 6 hours and 24 hours of exposure to noise. Then, the ABR test was performed after two weeks of noise induction in the same manner as Experimental Example 1-1 and the result was illustrated in FIG. 8.
as §1, with “95” for “90”, “9.” for “8.”

Molecule: gentamicin [reference compound]
- ROS generation rate (DCF-DA) (HEI-OC1 cell line; GM 3 μM alone): 24.39
- increase rate of DCF fluorescent intensity (HEI-OC1 cell line; GM 3 μM alone, Table 3): 56.06
- increase rate of DCF fluorescent intensity (HEI-OC1 cell line; GM 4 μM only, Table 4): 11.51
- increase rate of the DCF fluorescence intensity (HEI-OC1 cell line; Gentamicin 2 μM): 7.64%
- increase rate of the DCF fluorescence intensity (HEI-OC1 cell line; Gentamicin 3 μM): 12.59%
- increase rate of the DCF fluorescence intensity (HEI-OC1 cell line; Gentamicin 4 μM): 20.35%
- generation amount of the ROS (HEI-OC1 cell line; as the treatment amount of gentamicin was increased (0-4 μM)): increased
- cell death (HEI-OC1 cell line; gentamicin of 10 μM or more): the cells were almost died

Molecule: β-glucan [reference compound]
- protection of hearing loss (DCF-DA test) as compared to gentamicin only (HEI-OC1 cell line): not verified that when the β-glucan was administered, particular protection of hearing loss was shown

Molecule: O=C(/C=C/c1ccc(O)c(O)c1)Nc1ccc(O)cc1C(=O)O [AVN, avenanthramide-C]
- lowering of hearing threshold (ABR, click) versus exposure to noise without treatment ([1]; 10 μg/kg i.p. 6 and 24 hours before noise 90 dB 8 KHz 6 hours, ABR two weeks after noise, FIG. 8): ≥ 20 dB
- lowering of hearing threshold (ABR, click) versus exposure to noise without treatment ([1]; 10 μg/kg i.p. 6 and 24 hours before noise 95 dB 8 KHz 6 hours, ABR two weeks after noise, FIG. 9): ≥ 40 dB
- hearing threshold (ABR, click) versus control ([1]; 10 μg/kg i.p. before noise 95 dB 8 KHz 6 hours, ABR two weeks after noise, FIG. 9): almost the same threshold value as the control
- hearing threshold (ABR, click) versus exposure to noise without treatment ([1]; 10 μg/kg intraperitoneally 6 hours and 24 hours before noise (90 dB, 8 KHz, 6 hours), FIG. 7): lower threshold
- effect of preserving the hearing threshold (ABR, tone burst) ([1]; 10 μg/kg i.p. before noise 90 dB, FIG. 7): the effect of preserving the hearing threshold was high
- effect of preserving the hearing threshold (ABR, tone burst) ([1]; noise 90 dB, ABR two weeks after noise, FIG. 8): the effect of preserving the hearing threshold was high
- effect of preserving the hearing threshold (ABR, tone burst) ([1]; noise 95 dB, ABR two weeks after noise, FIG. 9): the effect of preserving the hearing threshold was high
- increase rate of DCF fluorescent intensity (HEI-OC1 cell line; AVN 0.5 μM 3 hr + GM 3 μM): 45.85
- increase rate of DCF fluorescent intensity (HEI-OC1 cell line; AVN 0.5 μM 12 hr + GM 3 μM): 45.12
- increase rate of DCF fluorescent intensity (HEI-OC1 cell line; AVN 0.5 μM 24 hr + GM 3 μM): 34.89
- ROS generation rate (DCF-DA) (HEI-OC1 cell line; AVN 1 μM alone): 4.43
- ROS generation rate (DCF-DA) (HEI-OC1 cell line; AVN 1 μM pretreated 24 hrs + GM 3 μM): 13.46
- increase rate of DCF fluorescent intensity (HEI-OC1 cell line; AVN only (0.5 μM), Table 3): 32.27
- increase rate of DCF fluorescent intensity (HEI-OC1 cell line; GM 4 μM + AVN 0.1 μM (24 hrs pretreatment)): 7.62
- increase rate of DCF fluorescent intensity (HEI-OC1 cell line; GM 4 μM + AVN 0.2 μM): 5.4
- increase rate of DCF fluorescent intensity (HEI-OC1 cell line; GM 4 μM + AVN 0.4 μM): 5.43
- increase rate of DCF fluorescent intensity (HEI-OC1 cell line; GM 4 μM + AVN 0.6 μM): 5.36
- increase rate of DCF fluorescent intensity (HEI-OC1 cell line; GM 4 μM + AVN 0.8 μM): 1.31
- increase rate of DCF fluorescent intensity (HEI-OC1 cell line; GM 4 μM + AVN 1.0 μM): 1.62
- increase rate of DCF fluorescent intensity (HEI-OC1 cell line; GM 4 μM + AVN 1.5 μM): 2.06
- increase rate of DCF fluorescent intensity (HEI-OC1 cell line; GM 4 μM + AVN 2.0 μM): 1.26
- increase rate of DCF fluorescent intensity (HEI-OC1 cell line; GM 4 μM + AVN 4.0 μM): 1.1
- increase rate of DCF fluorescent intensity (HEI-OC1 cell line; GM 4 μM + AVN 6.0 μM): 0.81
- ROS generated by gentamicin (HEI-OC1 cell line; as the avenanthramide treatment time increased (3, 12, 24 hr)): decreased
- effect on the damage by gentamicin (HEI-OC1 cell line; avenanthramide 0.1 μM, GM 4 μM): did not affect the damage by gentamicin
- decrease of the amount of ROS as compared to no avenanthramide (HEI-OC1 cell line; avenanthramide 0.2 μM, GM 4 μM): ≥ 50%
- amount of ROS generated by gentamicin (HEI-OC1 cell line; avenanthramide pretreated for 24 hours): decreased
- benefit in reducing the ROS generated by gentamicin (HEI-OC1 cell line; treatment of avenanthramide for 24 hours or more): no particular benefit
- effect of suppressing hearing loss caused by the ROS (HEI-OC1 cell line; treatment time of avenanthramide 24 hours or more): up to the same level as a control

Molecule: O=C1O[C@H]([C@@H](O)CO)C(O)=C1O [ascorbic acid, reference compound]
- protection of hearing loss (DCF-DA test) as compared to gentamicin only (HEI-OC1 cell line): not verified that when the ascorbic acid was administered, particular protection of hearing loss was shown
